SMILES strings stand for the structures. Where “and” joins values, the source holds several entries; their conditions need not be identical. Equal entries are not always repeated.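 1) Cells in 96-well plates. 2) Compound, 48 h, 5 concentrations. 3) Linear interpolation between surrounding doses. 4) Unreached endpoint = highest concentration. GI50: concentration for 50% inhibition of growth. TGI denotes the concentration required for complete inhibition of growth.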

For 12 compounds, GI50 and TGI results are on record in PubChem BioAssay (NCI).

Experiment in all cases: DTP human tumour cell line panel, 48 h
In experiment [1] the test system is OVCAR-3 ovarian.
For experiment [2], the system named is M14 melanoma.
For experiment [3], the system named is T-47D breast.
Experiment [4] has as its system SW-620 colon.
For experiment [5], the system named is SR leukemia.
Experiment [6] deals with MDA-MB-231 breast.
Experiment [7] has as its system ACHN renal.
The test system of experiment [8] is CAKI-1 renal.
In experiment [9] the test system is SK-MEL-28 melanoma.
Experiment [10] deals with U251 CNS.

With `Cc1c(Cl)cccc1NC(=O)c1sc2nc3c(cc2c1N)CCCC3`, the GI50 was 0.378 µM in [1]; 0.39 µM in experiment [2]; 0.402 µM in [3]; 0.471 µM in experiment [4]; 0.315 µM in [5]; over 100 µM in experiment [6]. The GI50 was 0.785 µM in experiment [7], 1.01 µM in experiment [8] and 0.504 µM in [10]. Moreover, the TGI in [1], in experiment [2], in experiment [3], in experiment [4], in [5] and in experiment [6] was over 100 µM throughout. The TGI in experiment [7], in experiment [8], in [9] and in experiment [10] was over 100 µM in each case.
As to `Cc1ccc(-c2n[nH]c(=O)c3noc(-c4ccc(C)cc4)c23)cc1`, the GI50 in experiment [1] was 1 µM; in experiment [2], 0.422 µM; in [3], 2.41 µM; in experiment [4], 0.427 µM; in [5], 0.441 µM; in experiment [6], 1.77 µM. Moreover, the GI50 was 3.16 µM in experiment [7], 2.27 µM in [8], 10.2 µM in experiment [9] and 0.814 µM in experiment [10]. Moreover, the TGI in experiment [1] was 3.41 µM; in experiment [2], over 100 µM; in experiment [3], over 100 µM; in [4], over 100 µM; in experiment [5], over 100 µM; in experiment [6], 39.8 µM. Also, the TGI was 73.3 µM in experiment [7], over 100 µM in experiment [8], over 100 µM in [9] and 18.8 µM in experiment [10].
With `Cc1cc2nc3c4ccc(Br)cc4n(CCN(C)C)c3nc2cc1C`, the GI50 in experiment [1] was 2.04 µM; in [2], 1.55 µM; in experiment [3], 2.05 µM; in experiment [4], 0.478 µM; in experiment [5], 0.423 µM; in [6], 1.97 µM. The GI50 in [7] is 0.459 µM; in [8], 1.53 µM; in experiment [9], 1.69 µM; in experiment [10], 1.47 µM. In addition, the TGI in [1] came out at 6.96 µM; in [2], 3.39 µM; in [3], 6.6 µM; in [4] it was 1.84 µM; in [5], 10 µM; in experiment [6], 7.45 µM. Besides, the TGI in experiment [7] amounted to 2.23 µM; in [8], 5.42 µM; in experiment [9] it was 3.12 µM; in [10], 4.44 µM.
With `CNC(c1ccncc1)C(NC)c1ccncc1` (stereo not drawn), the concentration for total growth inhibition (TGI) in experiment [1], in experiment [2], in [3], in experiment [4], in experiment [5] and in experiment [6] was over 100 µM throughout. The TGI in [7], in experiment [8], in experiment [9] and in experiment [10] was over 100 µM each time.
For the compound `COc1cc(/C=N/NC(=O)c2ccccc2Nc2cccc(C(F)(F)F)c2)cc(OC)c1OC`, the GI50 is 0.797 µM in experiment [1]; 3.35 µM in experiment [2]; 3.33 µM in [3]; 1.71 µM in experiment [4]; 1.3 µM in [5]; 6.33 µM in [6]. The GI50 in experiment [7] was 3.3 µM; in experiment [8] it was 1.4 µM; in experiment [9], 2.28 µM; in [10], 2.28 µM. The TGI in experiment [1] turned out to be 2.33 µM; in experiment [2], 14.4 µM; in experiment [3], 13.5 µM; in experiment [4] it was 6.36 µM; in [5], 4.16 µM; in experiment [6] it was 20.5 µM. The TGI in experiment [7] came to 13.3 µM; in [8], 4.71 µM; in [9] it was 8.16 µM; in experiment [10], 6.03 µM.
On to `CCCOC(=O)C1C2CCC(O2)C1C(=O)O` (stereo not drawn), for which the TGI in [1], in experiment [2], in experiment [3], in [4], in experiment [5] and in experiment [6] was over 100 µM throughout. The TGI in experiment [7], in experiment [8], in [9] and in [10] was over 100 µM in each case.
Regarding `CN1CCN(c2ccc3nc(-c4ccc(OCCCCN5CCN(CCCCN6C(=O)c7cccc8cccc(c78)C6=O)CC5)cc4)[nH]c3c2)CC1`, the GI50 is 36.6 µM in experiment [1]; over 100 µM in experiment [2]; 31.2 µM in experiment [3]; 39.2 µM in experiment [4]; 12.9 µM in [5]; 54.7 µM in experiment [6]. The GI50 was 25.6 µM in experiment [7], 73.1 µM in experiment [8], 19.4 µM in experiment [9] and 27.9 µM in experiment [10]. Moreover, the TGI in experiment [1], in experiment [2], in [3], in experiment [4], in [5] and in experiment [6] was over 100 µM each time. In addition, the TGI was 64.1 µM in experiment [7], over 100 µM in [8], 49.9 µM in experiment [9] and over 100 µM in experiment [10].
In the case of `O=C(/C=C/c1ccco1)c1ccc(Nc2nc(Nc3ccc(F)cc3)nc(Nc3ccc(F)cc3)n2)cc1`, the GI50 in experiment [1] is 16.9 µM; in [2] it was 12.8 µM; in experiment [3], 11.4 µM; in experiment [4] it was 19 µM; in experiment [5], 2.37 µM; in experiment [6], 23.7 µM. For the same compound, the GI50 was over 100 µM in experiment [7], 26.7 µM in experiment [8], 18.3 µM in experiment [9] and 21.6 µM in experiment [10]. Also, the TGI in experiment [1] was 45.9 µM; in experiment [2], 30.5 µM; in experiment [3], 59.8 µM; in [4], over 100 µM; in experiment [5], 5.84 µM; in [6] it was over 100 µM. Besides, the TGI in [7] is over 100 µM; in experiment [8], 60.5 µM; in experiment [9], 44.3 µM; in experiment [10] it was 42.2 µM.
In the case of `Cc1ccc(S(=O)(=O)NC(CO)C(=O)O)cc1` (stereo not drawn), the TGI in [1], in [2], in experiment [3], in experiment [4], in experiment [5] and in experiment [6] was over 100 µM in each case. Besides, the TGI in experiment [7], in experiment [8], in [9] and in experiment [10] was over 100 µM throughout.
Turning to `O=C(C=C=Nc1ccccc1)C(=O)N=C=Cc1ccccc1`, the GI50 in experiment [1] was 1.48 µM; in [2], 2.16 µM; in [3], 1.62 µM; in [4], 1.72 µM; in [5], 0.298 µM; in experiment [6], 3.15 µM. Further, the GI50 in experiment [7] was 1.76 µM; in [8] it was 1.73 µM; in experiment [9], 1.88 µM; in experiment [10], 5.27 µM. The TGI is 2.97 µM in [1]; 6.46 µM in experiment [2]; 3.94 µM in experiment [3]; 3.61 µM in experiment [4]; over 100 µM in [5]; 10.4 µM in [6]. In addition, the TGI came to 4.6 µM in [7], 6.05 µM in [8], 3.85 µM in [9] and 17.3 µM in experiment [10].
In the case of `CC(/C=N/N=C(N)N)=N\N=C(N)N`, the GI50 was 11.1 µM in experiment [1]; 5.02 µM in experiment [3]; 15 µM in experiment [4]; 1.95 µM in [5]; 7.67 µM in experiment [6]; over 43.5 µM in experiment [7]. The GI50 in experiment [8] is 51.7 µM and 15.7 µM; in [9], over 80.2 µM; in experiment [10], 47.7 µM. Besides, the TGI in experiment [1] was 130 µM; in [2] it was 425 µM; in [3], 31 µM and 23.4 µM; in experiment [4], 2070 µM; in experiment [5], 333 µM; in [6] it was 965 µM. Further, the TGI in experiment [7] was 2110 µM; in experiment [8], 1010 µM; in [9], 363 µM; in [10] it was 403 µM.
As for `Cn1cc(C2=C(c3cn(CCCCC(=N)N)c4ccccc34)C(=O)NC2=O)c2ccccc21`, the GI50 is over 23.7 µM in experiment [1]; over 25 µM in experiment [2]; over 25 µM in [3]; over 25 µM in [4]; 11.1 µM in [5]; over 25 µM in experiment [6]. Besides, the GI50 is over 25 µM in experiment [7], over 25 µM in [8], over 25 µM in experiment [9] and 17.2 µM in experiment [10]. Further, the total growth inhibition concentration (TGI) in [1], in [2], in experiment [3], in [4], in experiment [5] and in experiment [6] was over 25 µM throughout. Moreover, the TGI in experiment [7], in experiment [8], in experiment [9] and in experiment [10] was over 25 µM each time.

Usually GI50 stands for the concentration giving 50% growth inhibition. Broadly, the TGI is the concentration at which net growth stops. Higher therefore signals lower sensitivity of the cells.
